Laboratory results taken from patent publication US20220233512A1, “INHIBITING AN IMMUNE RESPONSE MEDIATED BY ONE OR MORE OF TLR2, RAGE, CCR5, CXCR4 AND CD4” (priority 2020, published 2022).

Key:
[1] = target: FLNA interactions with CXCR4, CD4 and CCR5 (Homo sapiens, UniProt P21333); experiment: FLNA interactions with CXCR4, CD4 and CCR5 in lymphocytes (western blot); details: 1 nM; lymphocytes of Ab42-treated young control subject and of AD patient
[2] = test system: mild-to-moderate AD patients; experiment: Clinical studies of sumifilam in Alzheimer's disease patients; assay type: in vivo, human
Excerpt: FIG. 7, in two panels as FIGS. 7A and 7B, graphically illustrates some of the results of a Phase 2b Clinical study of the effects of Compound C0105, now known as sumifilam, on 64 mild-to-moderate AD patients, mini-mental state examination (MMSE) value of ≥16≤26, age 50-85 years, with a key inclusion at screening of CFS Total tau/ab≥0.28. The patients were divided into three groups, and each group was given one of three tablet dosages twice daily for 28 days. One patient group received a placebo, another received tablets containing 50 mg of sumifilam and the third received tablets containing 100 mg of sumifilam. Lumbar puncture screening of CFS and blood were taken prior to any administration and at day 28. […] FIG. 7B repeats the results shown in FIG. 7A and includes results for the additional neuroinflammation markers YKL-40 (a glycoprotein produced by inflammatory, cancer and stem cells), interleukin-6 (IL-6), soluble triggering receptor expressed on myeloid cells 2 (sTREM2), albumin (a marker for blood-brain-barrier permeability) and IgG antibodies. Stronger significance levels occurred in the 100 mg group. Data are means±SEM. *p≤0.0001, #p≤0.001, †p<0.01 and +p<0.05 versus placebo. N=22, 18 and 19 for placebo, 50 mg and 100 mg, respectively. […]

[3] = test system: tau; experiment: Tau phosphorylation in Ab42-treated organotypic frontocortical slice cultures; assay type: cell-based; details: Ab42-treated rat organotypic frontocortical slice cultures
Protocol: Rat brain slice organotypic culture methods were modified from those published previously. [Adamchik et al., Brain Res Brain Res Protoc 5:153-158 (2000).] FCX slices ([…]) were transferred to sterile, porous Millicell-CM inserts (0.4 mm). Each culture insert unit contained two brain slices and was placed into individual wells of a 12-well culture tray in 2 ml medium: 50% MEM with Earl's salts, 2 mM L-glutamine, 25% Earl's balanced salt solution, 6.5 g/l D-glucose, 20% fetal bovine serum (FBS), 5% horse serum, 25 mM HEPES buffer, pH 7.2, and […] streptomycin and […] penicillin. Cultures were kept in an incubator for 2 days at 36° C. in 5% CO2 to minimize the impact of injury from slice preparation.
On the day of experiment, medium was removed, the brain slices rinsed and incubated in 0.1% FBS-containing medium for 4 hours at 36° C. in 5% CO2. Brain slices were then cultured with 100 nM Ab42 and/or 0.1, 1 nM compound C0105 or compound C0114 in fresh 0.1% FBS-containing medium for 16 hours. […]
(§1) The levels of phosphorylated tau (pSer202tau, pThr231tau and pThr181tau) as well as total tau precipitated (loading controls) are assessed by Western blotting using specific antibodies directed against each of the phosphor-epitopes and the anti-tau, respectively.

[4] = target: T1, FLNA (Mus musculus, UniProt Q8BTM8); details: 20-22 mg/kg in vivo; Ab42-infused, 3xTg AD and aged wild-type mice (untreated 5.3); Wang et al. 2017; cited from earlier work
T1 construct: pI of FLNA from the brains of naïve mice; from tissue; host or cells: mouse brain (in vivo treated animals)

[5] = test system: tau; experiment: Tau phosphorylation in human postmortem frontal cortex slices; assay type: cell-based; details: 1 or 10 nM compound
Protocol: As will be seen from examination of FIG. 3 and FIG. 4, the ratio of TLR2 to FLNA increased with administration of each of LTA-SA, PGN-SA and Ab42 at a statistically significant amount relative to the control (p<0.01). Those changes in expression of TLR2 relative to FLNA were each inhibited by the presence of the 1 or 10 nM Compound C0105 at a statistically significant amount relative to the control (p<0.01) and relative to the ligand used. See, FIG. 3B.
A slight inhibition (about 25% or less) of that enhanced tau phosphorylation was provided by contacting the cells with 1 or 10 nM Compound C0105. […] See, FIGS. 4A and 4B.
as §1

Chain of FLNA interactions with CXCR4, CD4 and CCR5 (P21333 2-2647 limits assumed): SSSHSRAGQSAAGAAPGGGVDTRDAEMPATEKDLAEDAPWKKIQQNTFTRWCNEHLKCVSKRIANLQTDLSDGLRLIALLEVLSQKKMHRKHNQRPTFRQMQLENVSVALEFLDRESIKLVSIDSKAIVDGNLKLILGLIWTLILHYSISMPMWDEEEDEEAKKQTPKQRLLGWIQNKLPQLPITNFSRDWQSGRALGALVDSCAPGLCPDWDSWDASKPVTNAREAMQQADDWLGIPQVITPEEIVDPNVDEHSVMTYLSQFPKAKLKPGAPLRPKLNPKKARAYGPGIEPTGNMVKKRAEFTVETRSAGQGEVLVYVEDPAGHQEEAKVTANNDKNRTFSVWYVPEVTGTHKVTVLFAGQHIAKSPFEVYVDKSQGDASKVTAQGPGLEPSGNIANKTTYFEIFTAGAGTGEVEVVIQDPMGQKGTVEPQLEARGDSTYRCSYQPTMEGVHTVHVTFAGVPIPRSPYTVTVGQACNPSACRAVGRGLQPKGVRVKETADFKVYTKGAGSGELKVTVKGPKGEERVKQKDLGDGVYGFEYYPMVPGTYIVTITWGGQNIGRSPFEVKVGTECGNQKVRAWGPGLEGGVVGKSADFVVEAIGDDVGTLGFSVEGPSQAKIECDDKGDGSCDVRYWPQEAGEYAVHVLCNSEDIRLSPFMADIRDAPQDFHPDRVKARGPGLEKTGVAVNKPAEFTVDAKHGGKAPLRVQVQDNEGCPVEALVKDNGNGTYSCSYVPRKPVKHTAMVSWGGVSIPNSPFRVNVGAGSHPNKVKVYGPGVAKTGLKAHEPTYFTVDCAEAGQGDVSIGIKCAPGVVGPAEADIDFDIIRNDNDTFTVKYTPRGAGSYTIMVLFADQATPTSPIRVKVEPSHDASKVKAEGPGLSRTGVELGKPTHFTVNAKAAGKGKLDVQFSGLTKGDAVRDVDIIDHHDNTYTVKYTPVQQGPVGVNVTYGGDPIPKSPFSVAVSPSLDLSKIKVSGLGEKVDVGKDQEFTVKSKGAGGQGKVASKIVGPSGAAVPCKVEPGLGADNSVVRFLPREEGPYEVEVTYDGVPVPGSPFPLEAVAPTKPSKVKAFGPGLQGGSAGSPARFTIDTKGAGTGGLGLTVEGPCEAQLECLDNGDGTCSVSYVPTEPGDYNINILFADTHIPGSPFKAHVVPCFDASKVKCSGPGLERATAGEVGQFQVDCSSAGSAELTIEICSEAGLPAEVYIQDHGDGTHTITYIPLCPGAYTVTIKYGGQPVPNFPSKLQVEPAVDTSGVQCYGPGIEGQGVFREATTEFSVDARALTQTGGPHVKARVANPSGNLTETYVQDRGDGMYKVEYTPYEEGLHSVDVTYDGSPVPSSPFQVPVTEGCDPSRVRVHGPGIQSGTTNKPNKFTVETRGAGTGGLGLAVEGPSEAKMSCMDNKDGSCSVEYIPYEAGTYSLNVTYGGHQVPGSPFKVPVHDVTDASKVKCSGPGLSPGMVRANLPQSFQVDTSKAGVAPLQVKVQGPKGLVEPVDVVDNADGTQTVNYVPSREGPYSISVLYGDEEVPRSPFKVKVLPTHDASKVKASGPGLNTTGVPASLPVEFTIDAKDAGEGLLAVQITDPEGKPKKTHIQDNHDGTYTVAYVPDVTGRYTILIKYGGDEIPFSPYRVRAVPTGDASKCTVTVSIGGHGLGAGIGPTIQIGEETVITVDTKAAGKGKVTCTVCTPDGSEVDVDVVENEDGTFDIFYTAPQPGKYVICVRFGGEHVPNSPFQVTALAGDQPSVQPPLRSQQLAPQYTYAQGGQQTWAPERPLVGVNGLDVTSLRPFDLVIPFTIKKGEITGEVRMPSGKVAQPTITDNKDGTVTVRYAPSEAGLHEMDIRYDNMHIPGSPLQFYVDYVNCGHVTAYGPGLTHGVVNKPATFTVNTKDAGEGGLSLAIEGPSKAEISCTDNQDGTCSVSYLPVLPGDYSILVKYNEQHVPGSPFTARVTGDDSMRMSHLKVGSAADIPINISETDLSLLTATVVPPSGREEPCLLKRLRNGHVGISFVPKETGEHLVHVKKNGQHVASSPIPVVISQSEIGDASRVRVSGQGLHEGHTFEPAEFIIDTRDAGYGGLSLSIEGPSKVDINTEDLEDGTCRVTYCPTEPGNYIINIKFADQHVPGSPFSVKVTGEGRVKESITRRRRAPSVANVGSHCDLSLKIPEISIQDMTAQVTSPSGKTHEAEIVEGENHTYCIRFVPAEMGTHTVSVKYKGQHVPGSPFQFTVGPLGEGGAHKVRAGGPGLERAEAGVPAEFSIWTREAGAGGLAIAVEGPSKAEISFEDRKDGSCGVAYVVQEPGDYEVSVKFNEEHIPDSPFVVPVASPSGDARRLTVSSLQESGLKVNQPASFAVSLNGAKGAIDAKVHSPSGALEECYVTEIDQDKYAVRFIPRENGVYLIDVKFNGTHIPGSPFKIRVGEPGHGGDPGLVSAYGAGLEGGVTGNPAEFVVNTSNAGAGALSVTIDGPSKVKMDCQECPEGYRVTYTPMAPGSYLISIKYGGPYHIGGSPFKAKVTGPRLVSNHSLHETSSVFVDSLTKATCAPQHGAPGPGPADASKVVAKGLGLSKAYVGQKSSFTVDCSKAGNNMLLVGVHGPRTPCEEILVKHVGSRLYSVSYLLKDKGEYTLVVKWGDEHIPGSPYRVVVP

## CN1CCC2(CC1)NCC(=O)N2Cc1ccccc1 [Compound C0105M]
[1]
  FLNA linkages with CXCR4, CD4 and CCR5 (in words): reduced these linkages
[2]; 50 or 100 mg twice daily, 28-day and 6-month studies
  Immunoinflammatory cytokines in treated patients: reduction in the immunoinflammatory cytokines
[2]; Phase 2b, 50 mg or 100 mg tablets twice daily for 28 days, p<0.001 relative to placebo
  Amount of HMGB1 in CSF: decreased significantly
[3]
  Phosphorylation of tau at all three phosphorylation sites: dramatically reduces phosphorylation of tau
[4]
  pI of FLNA from brain after treatment: 5.9
[5]
  Inhibition of LTA-SA- or PGN-SA-enhanced tau phosphorylation: ≤ 25%
[5]; 0.1 micromolar Ab42
  Ab42-induced tau phosphorylation (in words): statistically significant reduction
